One molecule from patent US11446353B2, “Compositions and methods for the treatment of fungal infections” (priority 2014, dated 2022) can be followed below.

The test system of experiment [1] is Coccidioides posadasii Δcts2/Δard1/Δcts3. The experiment is classed as cell-based.
For experiment [2] the test system is unchanged.

The structures appear in SMILES notation.

As for `CC/C(=C(\c1ccccc1)c1ccc(OCCN(C)C)cc1)c1ccccc1` [Tamoxifen], the “hit strength in screen” value in experiment [1] is recorded as “strong positive hit”. Further, the “fungal growth inhibitory properties” value in experiment [2] is reported as “strong fungal growth inhibitory properties”.
